Key:
[1] = pKa of unformulated amine lipid by TNS fluorescence; assay type: physicochemical; settings: sodium phosphate buffer; Table 2; unformulated amine lipid, TNS; read-out: Lipid pKa
Outline: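 Unformulated amine lipid was diluted from ethanol stock to approx. 100 μM in 0.1 M sodium phosphate buffers spanning pH 4.5–9.0 with TNS. Fluorescence read at ex 321/em 448 nm; normalized data fitted sigmoidally to give pKa.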

[2] = LNP encapsulation efficiency of RNA (Ribogreen fluorescence assay); assay type: physicochemical; settings: sgRNA:mRNA 1:2
Outline: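 RiboGreen fluorescence (ex 488/em 525 nm) measured total RNA in 1×TE with 0.2% Triton X-100 and free RNA in 1×TE alone, against standard curves of the starting RNA; encapsulation = (total − free)/total. Total RNA alternatively quantified after Triton disruption by RP-IP HPLC, UV 260 nm.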

[3] = Table 3, Experiments 1-13, LNP 50% ionizable lipid, 38% cholesterol, 9% DSPC, 3% PEG2K-DMG

Row | SMILES | pKa [1] | % E (encapsulation efficiency) ([2]; LNP with 50% ionizable lipid, 38% cholesterol, 9% DSPC, 3% C13 Ether (LNP #1, Compound 53: 3% PEG2K-DMG instead)) [%] | % E (encapsulation efficiency) ([2]; Table 3, Experiment 14, LNP with 3% C13 Ether) [%] | % E (encapsulation efficiency) [2, 3] [%] | % E (encapsulation efficiency) ([2]; Table 5, PEG lipid C13 Ether) [%] | % E (encapsulation efficiency) ([2]; Table 5, PEG lipid C14 Ether) [%] | % E (encapsulation efficiency) ([2]; Table 5, PEG lipid PEG2K-DMG) [%] | % E (encapsulation efficiency) ([2]; Table 7, LNP with 3% C13 Ether) [%]
1 | CCCCC/C=C\C/C=C\CCCCCCCC(=O)OCC(CCCCCCC(=O)OC(CCCC)CCCC)COC(=O)OCCCN(CC)CC (stereo not shown) [Compound 20, 2-((((3-(diethylamino)propoxy)carbonyl)oxy)methyl)-9-(nonan-5-yloxy)-9-oxononyl (9Z,12Z)-octadeca-9,12-dienoate] | 6.19 | – | – | 98 | – | – | – | –
2 | CCCCC/C=C\C/C=C\CCCCCCCC(=O)OCC(COC(=O)CCCC(=O)OC(CCCCCCCC)CCCCCCCC)COC(=O)NCCN1CCCCCC1 (stereo not shown) [Compound 50, 3-(((2-(azepan-1-yl)ethyl)carbamoyl)oxy)-2-((((9Z,12Z)-octadeca-9,12-dienoyl)oxy)methyl)propyl heptadecan-9-yl Glutarate] | 6.6 | – | – | 98 | – | – | – | –
3 | CCCCC/C=C\C/C=C\CCCCCCCC(=O)OCC(CCCCCCCCC(=O)OCC(CCCC)CCCCCC)COC(=O)OCCCN(CC)CC (stereo not shown) [Compound 7, 11-((2-butyloctyl)oxy)-2-((((3-(diethylamino)propoxy)carbonyl)oxy)methyl)-11-oxoundecyl (9Z,12Z)-octadeca-9,12-dienoate] | 6.09 | – | – | 98 | – | – | – | –

Further lines, results first:

Row | pKa [1] | % E (encapsulation efficiency) ([2]; LNP with 50% ionizable lipid, 38% cholesterol, 9% DSPC, 3% C13 Ether (LNP #1, Compound 53: 3% PEG2K-DMG instead)) [%] | % E (encapsulation efficiency) ([2]; Table 3, Experiment 14, LNP with 3% C13 Ether) [%] | % E (encapsulation efficiency) [2, 3] [%] | % E (encapsulation efficiency) ([2]; Table 5, PEG lipid C13 Ether) [%] | % E (encapsulation efficiency) ([2]; Table 5, PEG lipid C14 Ether) [%] | % E (encapsulation efficiency) ([2]; Table 5, PEG lipid PEG2K-DMG) [%] | % E (encapsulation efficiency) ([2]; Table 7, LNP with 3% C13 Ether) [%] | SMILES
4 | 6.35 | 99 | 98 | 99 | 97 | 98 | 97 | 98 | CCCCCCCCC(CCCCCCCC)OC(=O)CCCC(=O)OCC(COC(=O)CCCC(=O)OC(CCCCCCCC)CCCCCCCC)COC(=O)NCCN(CC)CC [Compound 6, O,O′-(2-((((2-(diethylamino)ethyl)carbamoyl)oxy)methyl)propane-1,3-diyl) di(heptadecan-9-yl) diglutarate]
5 | 5.85 | – | – | 98 | – | – | – | – | CCCCCCCCC(CCCCCCCC)OC(=O)CCCCCCC(COC(=O)CCCC(=O)OC(CCCCCCCC)CCCCCCCC)COC(=O)OCCCN(CC)CC (stereo not shown) [Compound 8, 2-((((3-(diethylamino)propoxy)carbonyl)oxy)methyl)-9-(heptadecan-9-yloxy)-9-oxononyl heptadecan-9-yl glutarate]
